Activity calls are given as the source filed them.

From ChEMBL document CHEMBL1201862, “PubChem BioAssay data set” (2004) come the findings set out here.

Assay [1] in a line: NIH-3T3 fibroblast cytotoxicity, dose response, cytotoxicity control, cell-based, fluorescence, Alamar Blue, secondary assay (AID 2327).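 Also: NIH-3T3 mouse fibroblasts cultured with fluconazole at 8 µg/mL.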 Type of assay: functional.
Assay [2] can be described thus: fluconazole-exposed Candida albicans growth modulators – fluorescence, retest, confirmation (AID 2467). The format is functional, cell-based.
Assay [3] can be described thus: Luminescence Cell-Based Dose Confirmation HTS to Identify Activators of 5'UTR Stem-Loop Driven Alpha-Synuclein mRNA Translation in H4 Neuroglioblastoma Cells. [Related pubchem assays: 1829 (Project Summary), 1814 (Primary HTS)]. Type of assay: functional.
A short description of assay [4]: Luminescence Cell-Based Dose Response HTS to Identify Activators of Luciferase Translation or Activity in H4 […] Cells. [Related pubchem assays: 1829 (Project Summary), 1814 (Primary HTS)]. The format is functional.
Assay [5] concerns H4. The assay is described as follows: Luminescence Cell-Based Dose Response HTS to Identify Activators of 5'UTR Stem-Loop Driven Prion Protein mRNA Translation in H4 Neuroglioblastoma Cells. [Related pubchem assays: 1829 (Project Summary), 1814 (Primary HTS)]. The format is functional. Conditions: Homo sapiens.
Assay [6] has as its target T1, Leucine aminopeptidase (Plasmodium falciparum 3D7, UniProt Q8IL11).
T1 sequence (Q8IL11 whole entry): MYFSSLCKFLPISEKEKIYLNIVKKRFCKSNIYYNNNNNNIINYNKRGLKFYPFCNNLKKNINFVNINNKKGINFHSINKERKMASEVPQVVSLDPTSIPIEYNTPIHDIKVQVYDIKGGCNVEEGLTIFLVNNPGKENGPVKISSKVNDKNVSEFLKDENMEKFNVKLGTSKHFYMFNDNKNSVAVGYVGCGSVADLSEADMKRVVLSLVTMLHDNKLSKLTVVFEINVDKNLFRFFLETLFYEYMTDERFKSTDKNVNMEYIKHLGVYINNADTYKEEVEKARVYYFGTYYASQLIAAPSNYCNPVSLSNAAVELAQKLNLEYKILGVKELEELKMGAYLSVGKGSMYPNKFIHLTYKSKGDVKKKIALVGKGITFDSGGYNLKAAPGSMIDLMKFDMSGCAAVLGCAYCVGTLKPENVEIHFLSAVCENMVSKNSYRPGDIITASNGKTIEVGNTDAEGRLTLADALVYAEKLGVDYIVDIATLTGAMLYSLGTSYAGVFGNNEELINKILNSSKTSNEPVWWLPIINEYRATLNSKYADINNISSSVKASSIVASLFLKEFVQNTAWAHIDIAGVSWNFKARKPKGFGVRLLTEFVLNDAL
The assay is described as follows: P. falciparum M17LAP inhibitors, primary screen, biochemical, fluorogenic H-Leu-NHMec substrate, 1536-well (AID 1619). Type of assay: functional.

Assay [7] concerns the target T2, Caspase-3 (Homo sapiens, UniProt P42574).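 Also: Dose-response selectivity test against caspase-3 for candidate inhibitors of sentrin-specific proteases (SENPs).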
T2 sequence (P42574 whole entry): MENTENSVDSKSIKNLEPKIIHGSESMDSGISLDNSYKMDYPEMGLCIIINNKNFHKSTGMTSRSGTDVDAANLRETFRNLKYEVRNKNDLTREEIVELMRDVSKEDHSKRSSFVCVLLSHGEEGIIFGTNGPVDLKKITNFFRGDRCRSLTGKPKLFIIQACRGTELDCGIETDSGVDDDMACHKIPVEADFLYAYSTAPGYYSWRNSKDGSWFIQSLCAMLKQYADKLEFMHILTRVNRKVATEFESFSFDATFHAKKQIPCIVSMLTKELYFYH
The format is functional.

The target in assay [8] is T3, Sentrin-specific protease 7 (Homo sapiens, UniProt Q9BQF6).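 Also: Luminescence-based dose-response confirmation of ultra-high-throughput screening hits, measuring inhibition of SENP7.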
T3 sequence (Q9BQF6 whole entry): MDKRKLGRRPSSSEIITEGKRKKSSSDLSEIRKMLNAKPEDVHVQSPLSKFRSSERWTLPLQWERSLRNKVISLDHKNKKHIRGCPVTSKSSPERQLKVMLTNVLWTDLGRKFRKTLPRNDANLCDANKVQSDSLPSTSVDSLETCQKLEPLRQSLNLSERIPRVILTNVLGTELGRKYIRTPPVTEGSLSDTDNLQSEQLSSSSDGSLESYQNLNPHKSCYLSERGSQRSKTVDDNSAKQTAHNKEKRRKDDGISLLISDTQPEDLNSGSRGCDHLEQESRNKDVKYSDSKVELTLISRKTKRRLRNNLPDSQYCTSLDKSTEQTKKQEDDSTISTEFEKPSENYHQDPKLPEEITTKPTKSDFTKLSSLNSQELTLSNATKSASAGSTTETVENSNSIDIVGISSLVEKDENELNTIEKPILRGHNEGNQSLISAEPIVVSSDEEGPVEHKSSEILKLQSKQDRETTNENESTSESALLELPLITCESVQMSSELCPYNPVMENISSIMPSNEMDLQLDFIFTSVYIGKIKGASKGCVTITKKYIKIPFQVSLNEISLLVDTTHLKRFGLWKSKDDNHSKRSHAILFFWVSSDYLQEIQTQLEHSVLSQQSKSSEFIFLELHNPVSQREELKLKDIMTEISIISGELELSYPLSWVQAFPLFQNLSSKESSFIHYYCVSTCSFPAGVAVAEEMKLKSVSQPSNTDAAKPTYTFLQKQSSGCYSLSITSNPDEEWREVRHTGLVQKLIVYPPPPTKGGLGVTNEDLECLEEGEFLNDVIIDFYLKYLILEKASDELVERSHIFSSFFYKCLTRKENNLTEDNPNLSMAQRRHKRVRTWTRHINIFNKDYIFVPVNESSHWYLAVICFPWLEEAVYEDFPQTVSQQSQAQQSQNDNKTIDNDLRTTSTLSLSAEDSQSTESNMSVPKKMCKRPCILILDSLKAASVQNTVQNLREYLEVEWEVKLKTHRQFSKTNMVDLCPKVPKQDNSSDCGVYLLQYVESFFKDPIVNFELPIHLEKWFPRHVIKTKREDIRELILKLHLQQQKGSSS
The format is functional.

The target of assay [9] is T4, Sentrin-specific protease 6 (Homo sapiens, UniProt Q9GZR1).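 Also: Luminescence-based dose-response confirmatory assay of SENP6 inhibition, following up an ultra-high-throughput screen.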
T4 sequence (Q9GZR1 whole entry): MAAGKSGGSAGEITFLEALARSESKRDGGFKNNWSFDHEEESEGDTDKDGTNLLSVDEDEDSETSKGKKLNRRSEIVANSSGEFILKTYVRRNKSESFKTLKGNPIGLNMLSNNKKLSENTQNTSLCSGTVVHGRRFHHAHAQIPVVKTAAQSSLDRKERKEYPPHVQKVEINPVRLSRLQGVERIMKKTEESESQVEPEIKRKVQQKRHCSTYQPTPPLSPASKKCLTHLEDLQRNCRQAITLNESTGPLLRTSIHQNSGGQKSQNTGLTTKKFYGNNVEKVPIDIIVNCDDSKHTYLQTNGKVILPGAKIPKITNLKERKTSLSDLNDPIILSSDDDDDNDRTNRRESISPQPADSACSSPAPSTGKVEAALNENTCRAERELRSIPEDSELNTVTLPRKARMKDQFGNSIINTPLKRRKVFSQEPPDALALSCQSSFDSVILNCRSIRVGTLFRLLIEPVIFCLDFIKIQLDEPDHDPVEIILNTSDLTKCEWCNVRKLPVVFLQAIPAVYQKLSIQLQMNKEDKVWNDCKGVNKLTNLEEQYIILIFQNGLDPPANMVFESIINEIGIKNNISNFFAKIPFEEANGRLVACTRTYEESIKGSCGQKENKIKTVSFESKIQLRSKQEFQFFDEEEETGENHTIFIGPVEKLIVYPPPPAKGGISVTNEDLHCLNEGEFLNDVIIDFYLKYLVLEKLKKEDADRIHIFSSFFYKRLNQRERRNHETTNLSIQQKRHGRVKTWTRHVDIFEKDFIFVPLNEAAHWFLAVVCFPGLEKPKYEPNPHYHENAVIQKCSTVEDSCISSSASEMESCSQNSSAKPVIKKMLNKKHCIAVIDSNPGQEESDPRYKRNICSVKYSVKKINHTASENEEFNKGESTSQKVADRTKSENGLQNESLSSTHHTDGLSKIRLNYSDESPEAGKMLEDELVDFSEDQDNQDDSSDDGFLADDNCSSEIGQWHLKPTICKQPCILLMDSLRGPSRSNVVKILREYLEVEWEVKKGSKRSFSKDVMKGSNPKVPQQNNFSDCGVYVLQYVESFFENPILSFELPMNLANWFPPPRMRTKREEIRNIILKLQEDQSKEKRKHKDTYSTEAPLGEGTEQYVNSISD
Type of assay: functional.

For assay [10], the target named is T5, Sentrin-specific protease 8 (Homo sapiens, UniProt Q96LD8).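 Also: luminescence read-out of SENP8 inhibition, dose-response confirmation following an ultra-high-throughput screen.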
T5 sequence (Q96LD8 whole entry): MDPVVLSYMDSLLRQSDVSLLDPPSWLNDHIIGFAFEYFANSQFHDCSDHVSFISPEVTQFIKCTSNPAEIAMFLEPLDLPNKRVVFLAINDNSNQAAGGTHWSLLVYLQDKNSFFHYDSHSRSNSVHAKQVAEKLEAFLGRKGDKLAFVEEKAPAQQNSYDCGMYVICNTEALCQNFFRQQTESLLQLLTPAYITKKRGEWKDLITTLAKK
Type of assay: functional.

Assay [11] deals with T6, Protein skinhead-1 (Caenorhabditis elegans, UniProt P34707).
T6 sequence (P34707 whole entry): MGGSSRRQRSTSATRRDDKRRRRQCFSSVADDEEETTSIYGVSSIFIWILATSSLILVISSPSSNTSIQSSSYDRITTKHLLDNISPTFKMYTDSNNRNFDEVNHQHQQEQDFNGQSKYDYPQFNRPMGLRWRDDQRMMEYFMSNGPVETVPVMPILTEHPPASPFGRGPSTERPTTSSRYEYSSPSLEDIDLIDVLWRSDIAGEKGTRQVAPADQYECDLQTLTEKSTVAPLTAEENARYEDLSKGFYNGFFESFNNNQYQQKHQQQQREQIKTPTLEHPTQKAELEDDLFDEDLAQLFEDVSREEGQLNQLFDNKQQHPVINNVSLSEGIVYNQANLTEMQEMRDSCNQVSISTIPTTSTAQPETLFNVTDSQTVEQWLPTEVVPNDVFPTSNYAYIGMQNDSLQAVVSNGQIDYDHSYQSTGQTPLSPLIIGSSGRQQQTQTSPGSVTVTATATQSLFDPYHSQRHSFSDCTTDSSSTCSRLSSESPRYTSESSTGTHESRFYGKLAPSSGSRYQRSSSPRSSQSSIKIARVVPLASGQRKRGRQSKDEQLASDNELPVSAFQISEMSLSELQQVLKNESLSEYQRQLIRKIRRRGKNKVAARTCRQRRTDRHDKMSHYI
The format is functional.

In assay [12] the target is Glucose-6-phosphate 1-dehydrogenase (Homo sapiens, UniProt P11413). In words: inhibition of Homo sapiens G6PD, dose series – biochemical, fluorescence, selectivity assay for P. falciparum G6PD inhibitor project, dose response (AID 504792). Type of assay: functional.
Assay [13] in a line: reduction of Shn3 3'UTR-driven luciferase in osteoblasts – cell-based, Clone20 osteoblasts, firefly luciferase, cherry-picked, dose response (AID 624132).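 Also: firefly luciferase luminescence from reporter carrying the Shn3 3'UTR in osteoblasts.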 The format is functional.
A short description of assay [14]: non-specific 3'UTR reporter inhibition in Clone20-Shn3RL – cell-based, Renilla luciferase, cherry-picked, counter-screen for Shn3 inhibitor project, dose response (AID 624133). Type of assay: functional.

Chain of Glucose-6-phosphate 1-dehydrogenase (P11413 whole entry): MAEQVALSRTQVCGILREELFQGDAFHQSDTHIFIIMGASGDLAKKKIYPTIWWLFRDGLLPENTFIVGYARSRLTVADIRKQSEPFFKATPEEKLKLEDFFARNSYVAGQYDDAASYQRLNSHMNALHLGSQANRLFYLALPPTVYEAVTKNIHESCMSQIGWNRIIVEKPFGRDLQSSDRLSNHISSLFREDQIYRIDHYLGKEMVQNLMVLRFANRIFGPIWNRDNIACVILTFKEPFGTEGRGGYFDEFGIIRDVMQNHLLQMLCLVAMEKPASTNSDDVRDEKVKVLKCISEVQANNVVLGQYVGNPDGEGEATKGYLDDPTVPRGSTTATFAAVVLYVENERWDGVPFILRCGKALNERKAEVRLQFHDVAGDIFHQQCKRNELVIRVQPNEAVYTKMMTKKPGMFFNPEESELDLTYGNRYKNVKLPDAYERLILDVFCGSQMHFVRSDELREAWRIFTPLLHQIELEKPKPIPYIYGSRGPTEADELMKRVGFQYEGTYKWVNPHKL

For the molecule `O=C(Cc1ccccc1)N/N=C/c1ccccc1Cl`, the results for the concentration giving a half-maximal response (EC50) in [1] and in [2] were > 150 µM (inconclusive) and > 38 µM (not active), respectively.
Turning to `Cc1ccc(C2=NNC3(CCOC(C)(C)C3)S2)cc1` (stereo not given), the EC50 in assay [1] is > 160 µM (inactive); in assay [3], 14 µM (active); in assay [4] it was 30.5 µM (active); in assay [5], 19.1 µM (active); in assay [2] it was > 38 µM (not active).
As to `Cc1ccc(SC(C)C(=O)Nc2ccc(S(=O)(=O)N3CCOCC3)cc2)cc1` (stereo not given), the IC50 in [6] is 21.2 µM (active).
Take `CCOC(=O)CSc1nnc(-c2ccco2)n1-c1ccc(C)cc1`: the half-maximal inhibitory concentration (IC50) in [6] was 37 µM (active).
With `COc1ccc2nc(Nc3nc4cc5c(cc4s3)OCCO5)sc2c1`, the IC50 was 37 µM (active) in [7], 5.81 µM (active) in assay [8], 66.6 µM (active) in assay [9] and > 100 µM (inactive) in [10].
On to `O=C(CSc1nc[nH]n1)Nc1ccccc1C(=O)O`, for which the IC50 in [6] is 35.6 µM (active).
As for `Brc1ccc(-c2cnc(-c3cccs3)o2)cc1`, the IC50 in assay [7] was 29.5 µM (active); in assay [8], 5.42 µM (active); in assay [9], 15 µM (active); in assay [10], 27.6 µM (active); in assay [11] it was 19.7 µM (active).
As to `Cc1ccc2oc(-c3ccco3)nc2c1`, the IC50 in assay [7] was 6.87 µM (active); in [8], 5.87 µM (active); in [9] it was 21.3 µM (active); in assay [10] it was > 100 µM (inactive).
On to `OCCNc1nc(O)nc(O)c1/N=C/c1ccccc1`, for which, in [12], the IC50 is 14.2 µM (active).
Take `Cc1cccc(-c2nc3ccccc3c(=O)n2NC(=O)/C=C/c2ccc([N+](=O)[O-])cc2)c1`: the EC50 in assay [1] was > 150 µM (inactive); in assay [2] it was 0.101 µM (active).
On to `Cc1c(O)c(S(=O)(=O)c2ccccc2)c(=O)n(-c2ccccc2)c1-c1ccccc1`, for which the IC50 in [6] is 9.98 µM (active).
In the case of `CCCCN(C(=O)/C=C/c1ccco1)c1c(N)n(Cc2ccccc2)c(=O)[nH]c1=O`, the figures for the EC50 in assay [1] and in assay [2] were > 150 µM (inactive) and > 38 µM (not active), respectively.
`CC(C)Sc1nnc(NC(=O)c2ccc3c(c2)OCO3)s1`: in assay [12], the IC50 is 38.9 µM (inactive).
In the case of `COc1ccc(CCNC(=O)c2ccc3c(SCC(=O)O)c4c(nc3c2)CCCC4)cc1OC`, the IC50 in assay [6] was 23.3 µM (active).
Take `Cc1ccc(-c2nnc(NC(=O)c3ccc([N+](=O)[O-])o3)o2)c(C)c1`: the values for the EC50 in assay [1] and in [2] were > 160 µM (inconclusive) and 1.85 µM (active), respectively.
Turning to `CC1Cc2ccccc2N1Cc1cccc(S(=O)(=O)N(C)C)c1` (stereo not given), the values for the AC50 in assay [13] and in assay [14] were 33 µM (active) and 23.9 µM (active), respectively.
